From PubChem BioAssay (NCI)
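Step 1: Grow cells in 96-well plates. Step 2: Expose to compound for 48 hours at 5 concentrations. Step 3: Interpolate endpoints linearly; if unreached, use highest concentration. Definition used: TGI = concentration required for complete inhibition of growth.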

What was measured:
Test in all cases: growth of human tumour cells (NCI), 48 h
MDA-MB-231 breast = tested on: MDA-MB-231 breast
PC-3 prostate = tested on: PC-3 prostate
MOLT-4 leukemia = tested on: MOLT-4 leukemia
SR leukemia = tested on: SR leukemia
IGROV1 ovarian = tested on: IGROV1 ovarian
A498 renal = tested on: A498 renal
OVCAR-4 ovarian = tested on: OVCAR-4 ovarian
HOP-62 NSCLC = tested on: HOP-62 NSCLC
786-0 renal = tested on: 786-0 renal
SF-295 CNS = tested on: SF-295 CNS
SK-MEL-2 melanoma = tested on: SK-MEL-2 melanoma

SMILES	TGI (MDA-MB-231 breast)	TGI (PC-3 prostate)	TGI (MOLT-4 leukemia)	TGI (SR leukemia)	TGI (IGROV1 ovarian)	TGI (A498 renal)	TGI (OVCAR-4 ovarian)	TGI (HOP-62 NSCLC)	TGI (786-0 renal)	TGI (SF-295 CNS)	TGI (SK-MEL-2 melanoma)
CN1COCc2c1ccc1cc3ccc4c(c3nc21)COCN4S(C)(=O)=O	> 100 µM	> 100 µM	> 100 µM	> 100 µM	> 100 µM	> 100 µM	> 100 µM	> 100 µM	> 100 µM	> 100 µM	–
O=C(O)c1ccc(OCc2nc3cc(C(F)(F)F)ccc3nc2-c2ccccc2)cc1	> 100 µM	> 100 µM	–	> 100 µM	> 100 µM	> 100 µM	–	> 100 µM	> 100 µM	> 100 µM	> 100 µM
Nc1ccc(S2(c3ccc(N)cc3)C=C(c3ccccc3)C(c3ccccc3)=C2)cc1	> 100 µM	> 100 µM	> 100 µM	> 100 µM	> 100 µM	> 90.3 µM	> 25.2 µM	> 100 µM	> 72.1 µM	> 100 µM	> 88.4 µM
C=C1CN2CC(=C)CN(C1)CS(=O)(=O)N1CC(=C)CN(CC(=C)C1)S(=O)(=O)N1CC(=C)CN(CC(=C)C1)S(=O)(=O)C2	92.1 µM	38.6 µM	> 100 µM	> 100 µM	> 100 µM	> 100 µM	> 100 µM	53.7 µM	58.9 µM	> 100 µM	> 100 µM
CCCCN=C(c1ccccc1)N1CCOCC1	> 100 µM	> 100 µM	> 100 µM	> 100 µM	> 100 µM	> 100 µM	–	> 100 µM	> 100 µM	> 100 µM	> 100 µM
CC(C)(C)C(=O)CC1=Nc2ccccc2SC1(O)CC(=O)C(C)(C)C (stereo unspecified)	36.2 µM	73.6 µM	24.3 µM	33 µM	61.2 µM	> 100 µM	–	76.2 µM	68.3 µM	68.6 µM	32 µM
C=C1C(=O)C=C[C@]2(C)CC[C@H]3C(=C)C(=O)O[C@@H]3[C@@H]12	11.7 µM	15.7 µM	3.52 µM	6.11 µM	4.28 µM	13.5 µM	5.78 µM	6.36 µM	3.28 µM	30.6 µM	6.99 µM
C#C[C@]1(O)CC[C@H]2[C@@H]3CCC4=C/C(=N/OC(=O)c5cccc6c(=O)c7ccccc7[nH]c56)CC[C@@H]4[C@H]3CC[C@@]21C	> 100 µM	> 100 µM	38.1 µM	33.2 µM	> 100 µM	> 100 µM	> 100 µM	> 100 µM	> 100 µM	> 100 µM	> 100 µM
CCOC(=O)NC(Nc1cccc(C(F)(F)F)c1)(C(F)(F)F)C(F)(F)F	> 100 µM	> 100 µM	> 100 µM	> 100 µM	> 100 µM	> 100 µM	–	> 100 µM	> 100 µM	> 100 µM	> 100 µM
CN1[C@@H]2C[C@@H](OC(=O)[C@H](CO)c3ccccc3)C[C@H]1[C@@H]1O[C@@H]12	> 100 µM	> 100 µM	> 100 µM	> 100 µM	> 100 µM	> 100 µM	> 100 µM	> 100 µM	> 100 µM	–	> 100 µM
Nc1[nH]nc2nc3ccc(C(F)(F)F)cc3nc12	> 100 µM	> 100 µM	> 100 µM	> 100 µM	72.2 µM	> 100 µM	> 100 µM	58.8 µM	60.7 µM	97.3 µM	84.3 µM
CC(=O)[C@@]1(O)CC[C@H]2[C@@H]3C[C@H](C)C4=CC(=O)C=C[C@]4(C)[C@@]3(F)[C@@H](O)C[C@@]21C	> 100 µM	> 100 µM	> 100 µM	> 100 µM	> 100 µM	> 100 µM	> 100 µM	> 100 µM	> 100 µM	> 100 µM	> 100 µM
CCNC(=O)Nc1cccc(NC(=O)NCC)n1	> 100 µM	> 100 µM	> 100 µM	> 100 µM	> 100 µM	> 100 µM	> 100 µM	> 100 µM	> 100 µM	> 100 µM	–
CC(=O)OCC1OC(n2c3c(cc(C#N)c2=S)CCCCC3)C(OC(C)=O)C(OC(C)=O)C1OC(C)=O (stereo unspecified)	> 100 µM	> 100 µM	> 100 µM	> 100 µM	> 100 µM	> 100 µM	> 100 µM	> 100 µM	> 100 µM	> 100 µM	> 100 µM
CC(C)(C)OC(=O)NCCCNC1(c2cc3ccccc3s2)CCCCC1	40.1 µM	47.6 µM	28.4 µM	28 µM	32.2 µM	29.8 µM	29.5 µM	28.5 µM	28.8 µM	28.4 µM	37.6 µM
CC(C)=CCNc1ncnc2c1ncn2CCC#N	> 100 µM	> 100 µM	> 100 µM	> 100 µM	> 100 µM	> 100 µM	> 100 µM	> 100 µM	> 100 µM	> 100 µM	–
O=[N+]([O-])/C(C(Cl)=C(Cl)Cl)=C(\N1CCCCC1)n1cncn1	30.1 µM	31.7 µM	> 50.5 µM	> 100 µM	24 µM	31.4 µM	36.7 µM	37.7 µM	52.4 µM	35.8 µM	43.8 µM
CSc1ncnc2c1ncn2CCC#N	> 100 µM	> 100 µM	> 100 µM	> 100 µM	> 100 µM	> 100 µM	> 100 µM	> 100 µM	> 100 µM	> 100 µM	–
CC1CCCC(CC(=O)O)(CC(=O)O)C1 (stereo unspecified)	> 100 µM	> 100 µM	> 100 µM	> 100 µM	> 100 µM	> 100 µM	> 100 µM	–	> 100 µM	–	> 100 µM
O=C1c2cccnc2-c2nccc3c2c1nc1cc(Br)ccc13	0.876 µM	1.12 µM	0.854 µM	0.0617 µM	0.31 µM	0.0659 µM	0.563 µM	0.362 µM	0.188 µM	0.72 µM	–
COC(=O)C1CCCN1C(=O)C(Cc1cn(S(=O)(=O)c2ccc(C)cc2)cn1)NC(=O)OC(C)(C)C (stereo unspecified)	> 100 µM	> 100 µM	> 100 µM	> 100 µM	> 100 µM	> 100 µM	–	> 100 µM	> 100 µM	–	> 100 µM
